Reference: ChEMBL document CHEMBL2177047, “Design, synthesis, and pharmacological evaluation of bis-2-(5-phenylacetamido-1,2,4-thiadiazol-2-yl)ethyl sulfide 3 (BPTES) analogs as glutaminase inhibitors” (J Med Chem, 2012)
Values after ≈ are worked out from the molar mass of the structure shown. Active and inactive are the calls of the source. The calls are words filed in the database; no cut-off is given here.

Experiments:
[1] = target: T1, Glutaminase kidney isoform, mitochondrial (Homo sapiens, UniProt O94925); assay: Inhibition of human kidney glutaminase (124 to 669) using L-[3H]-glutamine as substrate after 45 mins by GLS assay
T1 sequence (O94925 whole entry): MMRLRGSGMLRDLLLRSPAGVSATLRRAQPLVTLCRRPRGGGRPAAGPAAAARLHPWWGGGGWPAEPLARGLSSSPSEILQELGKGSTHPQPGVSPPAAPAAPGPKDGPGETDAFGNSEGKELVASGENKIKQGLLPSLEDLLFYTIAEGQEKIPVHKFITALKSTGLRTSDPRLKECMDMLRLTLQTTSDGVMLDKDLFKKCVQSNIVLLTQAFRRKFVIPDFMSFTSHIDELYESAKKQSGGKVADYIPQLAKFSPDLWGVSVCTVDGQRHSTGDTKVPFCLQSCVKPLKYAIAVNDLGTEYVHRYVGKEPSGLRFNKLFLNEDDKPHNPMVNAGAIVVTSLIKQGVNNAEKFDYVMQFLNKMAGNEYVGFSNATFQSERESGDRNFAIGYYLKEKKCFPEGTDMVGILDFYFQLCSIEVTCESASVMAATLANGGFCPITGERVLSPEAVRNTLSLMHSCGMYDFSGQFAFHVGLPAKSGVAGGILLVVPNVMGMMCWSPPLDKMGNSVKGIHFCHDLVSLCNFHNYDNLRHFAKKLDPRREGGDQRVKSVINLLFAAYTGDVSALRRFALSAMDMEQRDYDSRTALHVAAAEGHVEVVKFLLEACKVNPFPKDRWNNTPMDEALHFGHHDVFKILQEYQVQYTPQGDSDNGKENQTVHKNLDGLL

[2] = target: T2, Glutaminase liver isoform, mitochondrial (Mus musculus) (UniProt Q571F8); assay: Inhibition of mouse liver GLS2 up to 100 uM
T2 sequence (whole entry): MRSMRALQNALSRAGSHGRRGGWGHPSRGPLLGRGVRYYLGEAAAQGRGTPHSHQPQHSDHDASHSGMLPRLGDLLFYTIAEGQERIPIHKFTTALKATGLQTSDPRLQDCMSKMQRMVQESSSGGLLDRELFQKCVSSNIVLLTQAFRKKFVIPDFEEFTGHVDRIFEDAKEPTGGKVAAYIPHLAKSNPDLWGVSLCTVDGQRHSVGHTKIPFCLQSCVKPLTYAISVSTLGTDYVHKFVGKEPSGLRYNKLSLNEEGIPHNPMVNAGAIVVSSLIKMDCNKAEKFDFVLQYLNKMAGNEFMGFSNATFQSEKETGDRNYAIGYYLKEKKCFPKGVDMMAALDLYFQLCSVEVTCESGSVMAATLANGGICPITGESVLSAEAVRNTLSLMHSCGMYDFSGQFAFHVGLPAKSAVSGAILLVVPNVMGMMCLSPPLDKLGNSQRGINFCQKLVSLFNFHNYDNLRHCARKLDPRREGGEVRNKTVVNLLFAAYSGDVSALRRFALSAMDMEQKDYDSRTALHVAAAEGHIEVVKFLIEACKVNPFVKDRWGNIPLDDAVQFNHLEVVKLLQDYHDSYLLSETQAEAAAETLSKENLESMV

P493 [3] = assay: (§1) Cytotoxicity against human P493 cells assessed as growth inhibition by trypan blue dye exclusion assay; format: functional, cell-based
P493 [4] = assay: Antitumor activity against human P493 cells xenografted in SCID mouse assessed as reduction in tumor growth at 12.5 mg/kg, ip administered every other day from day 10 measured on days 10 to 19 relative to vehicle-treated control; format: functional, organism-based; parameters: dose 12.5 mg/kg
physchem = details: PBS buffer, pH 7.4
Description: Aqueous solubility of the compound in PBS buffer at pH 7.4 after 72 hrs by conventional shake flask method

Liver = assay: Metabolic stability in mouse liver microsomes at 5 uM up to 1 hr by LC/MS/MS analysis; format: ADME, Microsome
[5] = as §1; format: functional, cell-based; details: P493-6

SMILES | IC50 [1] [µM] | further results
Nc1nnc(CCCCc2nnc(NC(=O)Cc3ccc(F)cc3)s2)s1 | 2.6 | –
CN(C(=O)CCCCc1nnc(NC(=O)Cc2ccccc2)s1)C(C)(C)C | 5.2 | –
O=C(CCCCc1nnc(NC(=O)Cc2ccccc2)s1)NCCN1CCC(c2ccccc2)CC1 | 1.4 | –
Nc1nnc(CCCCc2nnc(NC(=O)CCc3ccccc3)s2)s1 | > 100 | –
O=C(CCCCc1nnc(NC(=O)Cc2ccccc2)s1)NCCN1CCC(O)CC1 | 3.8 | –
O=C(CCCCc1nnc(NC(=O)Cc2ccccc2)s1)NCCN1CCCCC1 | 10 | –
O=C(CCCCc1nnc(NC(=O)Cc2ccccc2)s1)NCc1ccccc1 | > 100 | –
Nc1nnc(CCCCc2cnc(NC(=O)Cc3ccccc3)s2)s1 | > 100 | –
Cc1ccc(CC(=O)Nc2nnc(CCCCc3nnc(N)s3)s2)cc1 | 4.5 | –
CN(CCN1CCCC1)C(=O)CCCCc1nnc(NC(=O)Cc2ccccc2)s1 | > 100 | –
Nc1nnc(CCCCc2nnc(NC(=O)c3ccccc3)s2)s1 | 7.2 | –
Nc1nnc(CCSCCc2nnc(NC(=O)Cc3ccccc3)s2)s1 | – | inhibition [2]: inactive; growth inhibition (GI) (P493 [3]): Dose-dependent effect; TGI (P493 [4]): Active
CN(C)c1ccc(CNC(=O)CCCCc2nnc(NC(=O)Cc3ccccc3)s2)cc1 | 48 | –
CC(C)(C)NC(=O)CCCCc1nnc(NC(=O)Cc2ccccc2)s1 | 11 | –
Nc1nnc(CC[S+]([O-])CCc2nnc(NC(=O)Cc3ccccc3)s2)s1 (stereo not given) | 61 | –
CC(C(=O)Nc1nnc(CCCCc2nnc(N)s2)s1)c1ccccc1 (stereo not given) | 12 | –
CCN(CC)CCNC(=O)CCCCc1nnc(NC(=O)Cc2ccccc2)s1 | 26 | –
Nc1nnc(CCCCc2csc(NC(=O)Cc3ccccc3)n2)s1 | > 100 | –
Nc1nnc(CCCCc2nnc(NC(=O)Cc3ccccc3)s2)s1 | – | solubility thermodynamic at 72 h (physchem): 3.4 µg/mL (≈ 9.08 µM); Stability (Liver): Stable
Nc1nnc(CCCCc2nnc(NC(=O)CC3CCCCC3)s2)s1 | 22 | –
CN1CCCC1CCNC(=O)CCCCc1nnc(NC(=O)Cc2ccccc2)s1 (stereo not given) | 8.1 | –
O=C(CCCCc1nnc(NC(=O)Cc2ccccc2)s1)NCc1ccc(C(F)(F)F)cc1 | > 100 | –
O=C(CCCCc1nnc(NC(=O)Cc2ccccc2)s1)NCCN1CCCC1 | – | solubility thermodynamic at 72 h (physchem): 683 µg/mL (≈ 1640 µM); Stability (Liver): Stable; IC50 [5]: 40 µM
Nc1nnc(CCCc2nnc(NC(=O)Cc3ccccc3)s2)s1 | 15 | –
NCCNC(=O)CCCCc1nnc(NC(=O)Cc2ccccc2)s1 | > 100 | –
